Where two headings read alike, the source gives them in different places. Blank lines part the entries; values can stand above or below the compound they belong to.
Tests used:
[1] = target: T1, RORγ ligand binding domain (LBD) (Homo sapiens, UniProt P51449); test: TR-FRET Activity Assay (ligand sensing, RORγ-LBD / coactivator peptide interaction, LANCE); format: biochemical
T1 construct: made in house; host or cells: E. coli BL-21 (BL3), vector pDEST15
T1 sequence (P51449 269-508 limits assumed): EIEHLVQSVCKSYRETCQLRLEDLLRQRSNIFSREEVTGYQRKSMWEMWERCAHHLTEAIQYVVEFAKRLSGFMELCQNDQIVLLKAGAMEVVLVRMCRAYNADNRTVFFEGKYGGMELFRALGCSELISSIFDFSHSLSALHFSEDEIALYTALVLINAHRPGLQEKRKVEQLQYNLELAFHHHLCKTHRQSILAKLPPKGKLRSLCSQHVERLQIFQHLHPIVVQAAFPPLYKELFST

RORγ = target: T2, RORγ (UniProt P51449); test: RORγ Gal4 Reporter Gene Assay in 293T cells (firefly and renilla luciferase); format: cell-based, human
T2 sequence (P51449 1-518): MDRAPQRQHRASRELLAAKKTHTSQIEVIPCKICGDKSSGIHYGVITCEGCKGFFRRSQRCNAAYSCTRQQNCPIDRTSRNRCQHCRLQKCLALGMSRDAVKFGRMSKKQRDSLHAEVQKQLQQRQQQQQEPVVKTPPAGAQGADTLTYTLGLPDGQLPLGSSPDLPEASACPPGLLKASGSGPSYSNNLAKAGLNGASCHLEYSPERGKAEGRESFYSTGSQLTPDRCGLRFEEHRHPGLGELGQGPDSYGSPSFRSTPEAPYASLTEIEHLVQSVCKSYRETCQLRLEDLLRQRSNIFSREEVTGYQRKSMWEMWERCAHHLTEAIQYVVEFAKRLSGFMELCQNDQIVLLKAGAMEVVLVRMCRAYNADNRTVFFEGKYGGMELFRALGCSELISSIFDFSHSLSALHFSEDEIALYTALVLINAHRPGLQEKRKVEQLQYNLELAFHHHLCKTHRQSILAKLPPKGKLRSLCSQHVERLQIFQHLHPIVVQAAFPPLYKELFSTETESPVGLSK

[2] = first value of the cell FRET/FF/REN, TR-FRET activity assay, read-out: pIC50 (FRET) (converted)
[3] = second value of the cell, Gal4 reporter gene assay in 293T cells, firefly luciferase
[4] = third value of the cell, Gal4 reporter gene assay in 293T cells, renilla normalised luciferase

SMILES: Cc1c(C(=O)NC2CCOCC2)cc(-c2ccc(S(=O)(=O)NC(C)(C)C)c(C(F)(F)F)c2)n1CC1CCCC(C(F)(F)F)C1 (stereo not drawn) [17/87]
- IC50 [1]: 0.501 µM
- pIC50 (FF) (RORγ): 6.3/6.9/6.9
- pIC50 (REN) (RORγ): 6.3/6.9/6.9

SMILES: Cc1c(C(=O)NC2CCOCC2)cc(-c2ccc(S(=O)(=O)NC(C)C)c(C(F)(F)F)c2)n1CC1CCCCC1 [17/112]
- IC50 [1, 2]: 0.316 µM
- pIC50 (FF) (RORγ; [3]): 7.4
- pIC50 (REN) (RORγ; [4]): 7.5

SMILES: COC(C)(C)CNC(=O)c1cc(-c2cc(C(C)(C)C)c3c(c2)C2(CCO3)CC2)n(CC2CCCCC2)c1C [1/97]
- IC50 [1]: 0.251 µM
- pIC50 (FF) (RORγ): 6.6/7.1/7.0
- pIC50 (REN) (RORγ): 6.6/7.1/7.0

SMILES: Cc1c(C(N)=O)cc(-c2ccc(C(O)(C(F)(F)F)C(F)(F)F)cc2)n1CC1CCCCC1 [1/45]
- IC50 [1, 2]: 1 µM
- pIC50 (FF) (RORγ; [3]): 5.6
- pIC50 (REN) (RORγ; [4]): 5.8

SMILES: Cc1c(C(=O)NC2CCOCC2)cc(-c2ccc(S(=O)(=O)NC(C)(C)C)cc2)n1CC1CCCCC1 [17/237]
- IC50 [1, 2]: 1.26 µM
- pIC50 (FF) (RORγ; [3]): 6.5
- pIC50 (REN) (RORγ; [4]): 6.5

SMILES: Cc1c(C(=O)NCC2(C)COC2)cc(-c2ccc(S(=O)(=O)NC(C)(C)C)c(C(C)(C)C)c2)n1CC1CCCCC1 [1/127]
- IC50 [1]: 0.501 µM
- pIC50 (FF) (RORγ): 6.3/7.5/7.4
- pIC50 (REN) (RORγ): 6.3/7.5/7.4

SMILES: Cc1c(C(=O)NCC(C)(C)O)cc(-c2ccc(S(=O)(=O)NC(C)(C)C)c(C(C)(C)C)c2)n1CC1CCCCC1 [9/8]
- IC50 [1, 2]: 0.631 µM
- pIC50 (FF) (RORγ; [3]): 7.0
- pIC50 (REN) (RORγ; [4]): 7.1

SMILES: Cc1c(C(=O)NCC2COC2)cc(-c2cc(C(C)(C)C)cc(C(C)(C)C)c2)n1CC1CCCCC1 [17/43]
- IC50 [1, 2]: 0.2 µM
- pIC50 (FF) (RORγ; [3]): 7.4
- pIC50 (REN) (RORγ; [4]): 7.4

SMILES: Cc1c(C(=O)NC2COC2)cc(-c2ccc(C(=O)N3CCCCC3)c(C(C)(C)C)c2)n1CC1CCCCC1 [1/34]
- IC50 [1, 2]: 1.26 µM
- pIC50 (FF) (RORγ; [3]): 6.8
- pIC50 (REN) (RORγ; [4]): 6.7

SMILES: Cc1c(C(=O)NCCN2CCOCC2)cc(-c2ccc(S(=O)(=O)NC(C)(C)C)c(C(C)(C)C)c2)n1CC1CCCCC1 [1/11]
- IC50 [1, 2]: 2 µM
- pIC50 (FF) (RORγ; [3]): 6.1
- pIC50 (REN) (RORγ; [4]): 6.1

SMILES: Cc1c(C(=O)NN2CCOCC2)cc(-c2cc(C(C)(C)C)c3c(c2)C2(CCO3)CC2)n1CC1CCCCC1 [17/9]
- IC50 [1]: 0.631 µM
- pIC50 (FF) (RORγ): 6.2/6.8/6.8
- pIC50 (REN) (RORγ): 6.2/6.8/6.8

The remaining lines, values ahead:

- IC50 [1, 2]: 1.26 µM
- pIC50 (FF) (RORγ; [3]): 5.8
- pIC50 (REN) (RORγ; [4]): 5.9
SMILES: Cc1c(C(=O)NCCc2nn[nH]n2)cc(-c2ccc(S(=O)(=O)NC(C)(C)C)c(C(C)(C)C)c2)n1CC1CCCCC1 [17/334]

- IC50 [1, 2]: 2 µM
- pIC50 (FF) (RORγ; [3]): 6.7
- pIC50 (REN) (RORγ; [4]): 6.8
SMILES: Cc1c(C(=O)N[C@H]2C[C@H](C(=O)O)C2)cc(-c2cc(C(=O)NCC(F)(F)F)cc(C3(C)CC3)c2)n1CC1CCCCC1 [17/357]

- IC50 [1, 2]: 1 µM
- pIC50 (FF) (RORγ; [3]): 6.7
- pIC50 (REN) (RORγ; [4]): 6.7
SMILES: Cc1c(C(=O)NCC2(O)CC[S+]([O-])CC2)cc(-c2cc(C(C)(C)C)c3c(c2)C2(CCO3)CC2)n1CC1CCCCC1 (stereo not drawn) [17/38]

- IC50 [1, 2]: 0.398 µM
- pIC50 (FF) (RORγ; [3]): 6.5
- pIC50 (REN) (RORγ; [4]): 6.5
SMILES: Cc1c(C(=O)NCCN2CCN(S(C)(=O)=O)CC2)cc(-c2cc(C(C)(C)C)cc(C3(C)CC3)c2)n1CC1CCCCC1 [17/347]

- IC50 [1, 2]: 0.631 µM
- pIC50 (FF) (RORγ; [3]): 6.8
- pIC50 (REN) (RORγ; [4]): 6.8
SMILES: Cc1c(C(=O)NCC(C)(C)O)cc(-c2cc(OC(F)(F)F)cc(C(=O)NC(C)(C)C)c2)n1CC1CCCCC1 [17/349]

- IC50 [1, 2]: 2.51 µM
- pIC50 (FF) (RORγ; [3]): 6.5
- pIC50 (REN) (RORγ; [4]): 6.5
SMILES: Cc1c(C(=O)NCCS(C)(=O)=O)cc(-c2cc(C(C)(C)O)cc(C3(C)CC3)c2)n1CC1CCCCC1 [17/317]

- IC50 [1, 2]: 1.26 µM
- pIC50 (FF) (RORγ; [3]): 7.4
- pIC50 (REN) (RORγ; [4]): 7.5
SMILES: Cc1c(S(=O)(=O)NC(C)(C)C)ccc(-c2cc(C(=O)NCCC(C)(C)C(=O)O)c(C)n2CC2CCCCC2)c1C(F)(F)F [17/286]

- IC50 [1, 2]: 0.398 µM
- pIC50 (FF) (RORγ; [3]): 8.1
- pIC50 (REN) (RORγ; [4]): 8.0
SMILES: CC(C)(C)NS(=O)(=O)c1ccc(-c2cc(C(=O)N[C@H]3C[C@H](C(=O)O)C3)c(Cl)n2CC2CCCCC2)c2ccccc12 [22/2]

— patent publication US9815851B2, “Pyrrolo carboxamides as modulators of orphan nuclear receptor RAR-related orphan receptor-gamma (RORγ, NR1F3) activity and for the treatment of chronic inflammatory and autoimmune diseases” (PHENEX PHARMACEUTICALS AG, priority 2011, dated 2017)
